Tests used:
[1] = refractive index (other wavelength) (dimensionless); conditions: 101.33 kPa, Liquid, Wavelength=632.8 nm, Standard Abbe refractometry
[2] = refractive index (other wavelength) (dimensionless); xn = mol fraction of the nth substance listed; conditions: 101.3 kPa, Liquid, Wavelength=632.8 nm, Standard Abbe refractometry

CCCCCCCCCC [decane]
[1]
Conditions | refractive index
278.87 K | 1.4169
280.1 K | 1.4163
281.3 K | 1.4158
282.48 K | 1.4153
283.62 K | 1.4148
284.82 K | 1.4142
286.06 K | 1.4137
287.23 K | 1.4132

CCCCCCCCCC [decane] + COC(=O)OC
[2], 287.95 K
Conditions | refractive index
x2 = 0.101 | 1.4095
x2 = 0.204 | 1.4062
x2 = 0.3 | 1.403
x2 = 0.401 | 1.3995
x2 = 0.501 | 1.3958
x2 = 0.605 | 1.3917
x2 = 0.686 | 1.388
x2 = 0.8 | 1.3821
x2 = 0.903 | 1.3762

COC(=O)OC [dimethyl carbonate]
[1]
Conditions | refractive index
277.34 K | 1.3749
278.7 K | 1.3743
280.06 K | 1.3737
281.54 K | 1.373
282.92 K | 1.3724
284.24 K | 1.3718
285.53 K | 1.3712
286.93 K | 1.3706
299.64 K | 1.3647
300.69 K | 1.3642
301.77 K | 1.3637
302.82 K | 1.3632
303.91 K | 1.3627
304.99 K | 1.3622
306.04 K | 1.3617
307.11 K | 1.3612
308.14 K | 1.3607

COC(=O)OC [dimethyl carbonate] + CCCCCCCCCCCCCC
Conditions | refractive index
[2], 308.14 K, x1 = 1 | 1.3632

CCCCCCCCCCCCCC [tetradecane]
[1]
Conditions | refractive index
299.64 K | 1.4248
300.67 K | 1.4244
301.68 K | 1.424
302.71 K | 1.4235
303.75 K | 1.4231
304.75 K | 1.4226
305.78 K | 1.4222
306.86 K | 1.4218
307.91 K | 1.4213

CCCCCCCCCCCCCC [tetradecane] + COC(=O)OC
[2], 308.14 K
Conditions | refractive index
x2 = 0 | 1.4235
x2 = 0.1 | 1.4179
x2 = 0.201 | 1.4145
x2 = 0.3 | 1.4107
x2 = 0.399 | 1.4067
x2 = 0.5 | 1.4019
x2 = 0.6 | 1.3966
x2 = 0.708 | 1.3898
x2 = 0.801 | 1.3826
x2 = 0.899 | 1.3729
